Values quoted from earlier work in patent US8728553B2, “Vitamin containing product” (Nattopharma ASA, priority 2000, dated 2014).

Conditions: intake of 5 g butter to which 800 μg MK-4 had been added (equivalent to 16 mg MK-4 per 100 g butter)

In the case of CC(C)=CCC/C(C)=C/CC/C(C)=C/CC/C(C)=C/CC1=C(C)C(=O)c2ccccc2C1=O [MK-4, menaquinone (MK-4)], the “MK-4 levels in blood serum” value is listed as “increased”.
